System: endometriosis
Assay: Intralesional administration of progesterone in women with endometriosis (case reports)
Format: in vivo, human
Conditions: person, 1 g intracystic and 1 g in each bladder nodule, follow up over 12 months
Protocol: They were regularly monitored by pain scores (visual analog), direct questionnaire, and ultrasound examination. […] Aspiration of the endometrioma and intracystic instillation of 1 g of progesterone was performed. Cystoscopy was carried out and 1 g of progesterone was instilled in each of the nodules in the bladder.

## CC(=O)[C@H]1CC[C@H]2[C@@H]3CCC4=CC(=O)CC[C@]4(C)[C@H]3CC[C@]12C [progesterone]
Ovarian endometrioma and bladder wall nodules
  symptoms on follow up: remained symptom free
  quality of life with regard to pelvic pain and urinary symptoms: good

Source: patent US9468647B2, “Methods for the treatment of endometriosis” (Miscon Trading S.A., priority 2003, dated 2016)
